Measured values reported in ChEMBL document CHEMBL2034821, “Synthesis, hypoglycemic and hypolipidemic activities of novel thiazolidinedione derivatives containing thiazole/triazole/oxadiazole ring” (Eur J Med Chem, 2012).

What was measured:
[1] = test system: Rattus norvegicus; test: Hypolipidemic activity in alloxan-induced diabetic Wistar rat model assessed as reduction in triglyceride level at 10 mg/kg, po for 15 days measured on day 15; assay type: functional; set-up: scale not given: the % may be the effect or the level left
[2] = test system: Rattus norvegicus; test: Hypoglycemic activity in alloxan-induced diabetic Wistar rat model assessed as reduction in plasma glucose level at 30 mg/kg, po for 15 days measured on day 15; assay type: functional; set-up: scale not given: the % may be the effect or the level left
[3] = test system: Rattus norvegicus; test: Hypolipidemic activity in alloxan-induced diabetic Wistar rat model assessed as reduction in triglyceride level at 100 mg/kg, po for 15 days measured on day 15; assay type: functional; set-up: scale not given: the % may be the effect or the level left
[4] = test system: Rattus norvegicus; test: Toxicity in Wistar rat at 3 to 100 mg/kg, po for 15 days; assay type: organism-based; set-up: dose 3-100 mg/kg, route oral; conditions: in vivo, 360 h
[5] = test system: Rattus norvegicus; test: Hypoglycemic activity in alloxan-induced diabetic Wistar rat model assessed as reduction in plasma glucose level at 100 mg/kg, po for 15 days measured on day 15; assay type: functional; set-up: scale not given: the % may be the effect or the level left
[6] = test system: Rattus norvegicus; test: Hypolipidemic activity in alloxan-induced diabetic Wistar rat model assessed as reduction in triglyceride level at 3 mg/kg, po for 15 days measured on day 15; assay type: functional; set-up: scale not given: the % may be the effect or the level left
[7] = test system: Rattus norvegicus; test: Hypoglycemic activity in alloxan-induced diabetic Wistar rat model assessed as reduction in plasma glucose level at 10 mg/kg, po for 15 days measured on day 15; assay type: functional; set-up: scale not given: the % may be the effect or the level left
[8] = test system: Rattus norvegicus; test: Hypolipidemic activity in alloxan-induced diabetic Wistar rat model assessed as reduction in triglyceride level at 30 mg/kg, po for 15 days measured on day 15; assay type: functional; set-up: scale not given: the % may be the effect or the level left
[9] = test system: Rattus norvegicus; test: Hypoglycemic activity in alloxan-induced diabetic Wistar rat model assessed as reduction in plasma glucose level at 3 mg/kg, po for 15 days measured on day 15; assay type: functional; set-up: scale not given: the % may be the effect or the level left

SMILES | Activity [1] [%] | Activity [2] [%] | Activity [3] [%] | Activity [4] | Activity [5] [%] | Activity [6] [%] | Activity [7] [%] | Activity [8] [%] | Activity [9] [%]
COc1ccc(-c2nnc(SCCOc3ccc(/C=C4\SC(=O)NC4=O)cc3)[nH]2)cc1 | 42.63 | 40.04 | 71.24 | Non-toxic | 43.42 | 43.14 | 33.62 | 59.46 | 41.28
Cc1nc(COc2ccc(/C=C3\SC(=O)NC3=O)cc2)cs1 | 19.2 | 14.73 | 38.92 | Non-toxic | 22.87 | 18.62 | 10.64 | 26.4 | 10.42
O=C1NC(=O)/C(=C/c2ccc(OCCSc3nnc(-c4ccccc4)o3)cc2)S1 | 22.18 | 16.13 | 33.12 | Non-toxic | 20.08 | 21.56 | 14.64 | 24.05 | 11.62
O=C1NC(=O)/C(=C/c2ccc(OCCSc3nnc(Cc4ccccc4)[nH]3)cc2)S1 | 22.81 | 28.54 | 41.87 | Non-toxic | 34.38 | 22.45 | 19.36 | 38.25 | 18.28
O=C1NC(=O)/C(=C/c2ccc(OCCSc3nnc(-c4ccncc4)o3)cc2)S1 | 42.17 | 40 | 69.72 | Non-toxic | 43.42 | 40.15 | 32.62 | 58.48 | 23.46
Cc1ccc(-c2nnc(SCCOc3ccc(/C=C4\SC(=O)NC4=O)cc3)[nH]2)cc1 | 21.69 | 22.64 | 53.96 | Non-toxic | 29.73 | 25.24 | 20.36 | 40.26 | 16.87
O=C1NC(=O)/C(=C/c2ccc(OCCSc3nnc(-c4ccccc4[N+](=O)[O-])[nH]3)cc2)S1 | 20.91 | 20.14 | 49.12 | Non-toxic | 26.84 | 19.84 | 15.28 | 38.64 | 14.58
O=C1NC(=O)/C(=C/c2ccc(OCc3csc(-c4ccccc4)n3)cc2)S1 | 21.69 | 22.64 | 53.96 | Non-toxic | 29.73 | 25.24 | 20.36 | 40.26 | 17.75
O=C1NC(=O)/C(=C/c2ccc(OCCSc3nnc(Cc4ccccc4)o3)cc2)S1 | 20.54 | 19.08 | 34.56 | Non-toxic | 23.08 | 18.52 | 16.82 | 28.02 | 14.23
O=C1NC(=O)/C(=C/c2ccc(OCCSc3nnc(-c4ccc([N+](=O)[O-])cc4)[nH]3)cc2)S1 | 15.32 | 16.02 | 22.08 | Non-toxic | 18.04 | 14.12 | 13.85 | 18.56 | 11.92
O=C1NC(=O)/C(=C/c2ccc(OCCSc3nnc(-c4ccc(Cl)cc4)[nH]3)cc2)S1 | 24.56 | 23.68 | 41.56 | Non-toxic | 28.85 | 23.85 | 19.63 | 32.92 | 16.04
O=C1NC(=O)/C(=C/c2ccc(OCCSc3nnc(-c4ccc(Br)cc4)[nH]3)cc2)S1 | 26.87 | 19.52 | 45.68 | Non-toxic | 28.51 | 28.35 | 20.43 | 39.45 | 13.15
O=C1NC(=O)/C(=C/c2ccc(OCCSc3nnc(-c4ccccc4)[nH]3)cc2)S1 | 19.2 | 14.73 | 38.92 | Non-toxic | 22.87 | 18.62 | 10.64 | 26.4 | 10.42
CCc1ccc(CCOc2ccc(CC3SC(=O)NC3=O)cc2)nc1 (centres undefined) [PIOGLITAZONE] | 47.25 | 40.96 | 75.43 |  | 45.89 | 41.6 | 35.25 | 64.59 | 47.02
O=C1NC(=O)/C(=C/c2ccc(OCCSc3nnc(-c4cccnc4)o3)cc2)S1 | 45.1 | 39.34 | 72.32 | Non-toxic | 50.09 | 40.66 | 33.16 | 60.78 | 24.35
